One data set has as its system fungi. The conditions noted are these: cited from earlier work.
Data set [1] has as its system potato cyst Nematode (Globodera rostochiensis Ct. Woll). The conditions noted are these: in vivo; cited from earlier work.
The subject of data set [2] is Wheat. The conditions noted are these: in vivo; cited from earlier work.
Data set [3] deals with root lesion nematode (Pratylenchus neglectus). The following applies: in vivo; cited from earlier work.
Data set [4] has as its system postharvest fruit pathogens. The conditions noted are these: cited from earlier work.
Data set [5] deals with downy brome (Bromus tectorum) seeds. Kind of data set: Assay for herbicidal activity: downy brome seed germination in soil. It is filed as in vivo. The conditions noted are these: for inhibition of downy brome germination at the highest concentration tested: 0.89 mg g^−1, FIG. 11; for effectiveness in inhibiting downy brome germination, in words: FIG. 11, comparison of compounds 1-4; for activity as seed germination inhibitors (downy brome): compared with MBITC, 82 hours and 168 hours, FIG. 8. The method, then: Assay for herbicidal activity. About 45 g of clean soil was weighed into 10-cm diameter Petri dishes. For germination testing of individual compounds (1-4), 15.0 mL of test solution was added to each dish. Glucolimanthin 1 (GLN) was dissolved in water and compounds 2-4 in ethanol. The ethanolic solutions were applied to the dishes, allowed to evaporate overnight in a hood, and then 15 mL of water was added to the dishes. Meal products were mixed with soil, followed by the addition of 15 mL of water. Fifteen seeds of Bromus tectorum were placed in concentric circles within each dish. Petri dishes with lids were placed in an incubator at 20° C. during day time (8 hrs) and at 15° C. at night time (16 hrs) for 7 days. Germination was recorded as root emergence.

The nature of data set [6]: Degradation of GLN in aqueous FeSO4 solution (HPLC). Type of data set: physicochemical. The conditions noted are these: 1 mM GLN with 10 mM FeSO4 at room temperature; FIG. 3B. From the text:
HPLC. The HPLC equipment consisted of a Waters Delta 600 solvent delivery system, a Waters 717 plus Autosampler, a Waters 2996 photodiode array detector, a Waters 600 controller and a data acquisition/processing computer with Empower™ software (Waters, Milford, Mass.). In HPLC system 1, separations were achieved on a reverse-phase Lichrosphere 5 μm C18 column (4×250 mm, Phenomenex, Torrance, Calif.). The HPLC solvents were 0.1% aqueous trifluoroacetic acid (solvent A) and MeCN (solvent B). A linear solvent gradient was employed starting from 5% solvent B in solvent A to 100% B over 30 min at a flow rate of 1.0 mL/min. After returning to the starting conditions in 1 min, the column was equilibrated for 10 min before the next injection. The injection volume was 20 μL. On-line UV spectra were recorded in the range 220-500 nm and the λ274 nm trace was used for calculation of peak areas. Analyte concentrations were determined from calibration curves constructed for each analyte.

Data set [7] deals with velvetleaf (Abutilon theophrasti). The conditions noted are these: in vivo; cited from earlier work.
Data set [8] relates to fall armyworm (Lepidoptera: Noctuidae). The following applies: compared with benzyl ITC and synthetic analogs; cited from earlier work.
For data set [9], the system named is Wheat. The conditions noted are these: in vivo; cited from earlier work. The source holds these as a separate data set.
The next data set deals with Aphamyces euteiches. The following applies: cited from earlier work.
The test system of data set [10] is velvetleaf, sicklepod, milo, and pitted morning glory. The following applies: formulated as granules; all weed types; cited from earlier work.
Data set [11] has as its system phase II enzymes (e.g., NAD(P)H:quinone reductase). The following applies: cited from earlier work.
Data set [12] concerns benzo[a]pyrene-induced stomach tumors. The following applies: mice dosed with test compound; cited from earlier work.
The test system of another data set is Helicobacter pylori. The conditions noted are these: cited from earlier work.
Data set [13] concerns human retinal pigment epithelial cells, keratinocytes, and mouse leukemia cells. The following applies: cited from earlier work.
Data set [14] concerns skin damage by UV radiation. The following applies: human subjects, topically applied; cited from earlier work.
Another data set has as its system phase 2 enzymes. The following applies: after treatment; cited from earlier work.

“Also recorded” adds a separate entry of the source.

Consider `S=C=NCCc1ccccc1` [2-phenylethyl ITC], for which, in the data set on fungi, the activity against fungi entry was “good activity”. In addition, the “activity on potato cyst nematode” value in [1] is reported as “performed well”. Also, in the data set on Wheat [2], the “order of effectiveness against wheat” value is 2-phenylethyl ITC>allyl ITC>benzyl ITC. In addition, the “effect on root lesion nematode” value in data set [3] is listed as “suppression”.

Turning to `C=CCCN=C=S` [3-butenyl ITC], the “activity against spore germination” value in data set [4] was “lower activity”.

As for `Oc1ccc(CN=C=S)cc1` [4-hyxdroxybenzl], the “activity against spore germination” value in data set [4] was “equal”.

As for `COc1cccc(C/C(=N/OS(=O)(=O)O)S[C@@H]2O[C@H](CO)[C@@H](O)[C@H](O)[C@H]2O)c1` [GLN, glucolimnanthin], in [5], the “inhibition of downy brome germination at the highest concentration tested” value (shortened to “inhibition of downy brome germination”) is “only slightly inhibited” and the “effectiveness in inhibiting downy brome germination, in words” value is “least effective”. In addition, the “effect of GLN on downy brome seed germination” value in data set [5] (levels corresponding to those found in MSM (0.4 mg GLN per g soil), 7 days, FIG. 7) is “no germination inhibitory activity; also recorded: no effect; also recorded: No difference”. Moreover, the “degradation of GLN” value in data set [6] is “did not result in significant degradation”.

On to `COc1cccc(CN=C=S)c1` [MBITC, 3-Methoxybenzyl isothiocyanate], for which the “seed germination inhibitory / allelopathic activity against velvetleaf” value in data set [7] is “greater activity”. Moreover, in data set [8], the effectiveness against armyworm result was “more effective”. In data set [5], the “inhibition of downy brome germination” value was “failed to completely inhibit”; the “effectiveness in inhibiting downy brome germination, in words” value is on record as “not as effective”; the “activity as seed germination inhibitors (downy brome)” value is “moderately active”. Further, the “seed germination inhibitory / allelopathic activity against wheat” value with Wheat [9] is given as “greater activity”.

Take `COc1cccc(CC#N)c1` [MPAN, 3-Methoxyphenylacetonitrile]: the “seed germination inhibitory / allelopathic activity against velvetleaf” value in [7] is listed as “seed germination inhibitory effects”. Besides, in [5], the “inhibition of downy brome germination” value is on record as “completely inhibiting”; the “effectiveness in inhibiting downy brome germination, in words” value is reported as “most effective”; the “activity as seed germination inhibitors (downy brome)” value is “more active”. Also, in the data set on Wheat [9], the “seed germination inhibitory / allelopathic activity against wheat” value is on record as “seed germination inhibitory effects”.

`C=CCN=C=S` [allyl ITC]: in the data set with Aphamyces euteiches, the “performance against pathogen causing pea root rot” value was “performed well”. Further, in [4], the “activity against spore germination” value is given as “equal”. Besides, in data set [1], the “activity on potato cyst nematode” value is listed as “performed well”. The “order of effectiveness against wheat” value with Wheat [2] is 2-phenylethyl ITC>allyl ITC>benzyl ITC.

In the case of `S=C=NCc1ccccc1` [benzyl ITC], the “activity against spore germination” value in data set [4] was “lower activity”. Further, the “inhibition of weed germination” value in data set [10] is reported as “inhibition of germination”. In the data set on fungi, the activity against fungi entry is recorded as “good activity”. Besides, the “activity on potato cyst nematode” value in data set [1] is listed as “performed well”. Further, the “order of effectiveness against wheat” value in the data set with Wheat [2] is given as 2-phenylethyl ITC>allyl ITC>benzyl ITC.

In the case of `CN=C=S` [methyl ITC], the “performance against pathogen causing pea root rot” value with Aphamyces euteiches is reported as “performed well”.

For the compound `C[S+]([O-])CCCCN=C=S` (stereo not shown) [sulforaphane, 4-methylsulfinylbuthyl ITC], the “induction of phase II enzymes” value in data set [11] is “high activity”. The “effect on benzo[a]pyrene-induced stomach tumors” value in [12] is “blocked”. For the same compound, the “antibacterial properties against Helicobacter pylori” value in the data set on Helicobacter pylori is “bacteriostatic and bactericidal properties”. Also, in data set [13], the glutathione after treatment entry is “increase”; the “protection of cells against oxidative damage” value is “powerful and prolonged protection”. For the same compound, in data set [14], the “erythema and inflammation induced by UV radiation” value was “reduced”. Further, in the data set on phase 2 enzymes, the “phase 2 enzymes in mouse and human skin” value is “Up-regulation”.

For the compound `CS/C=C/CCN=C=S` [trans-4-methylthio-3-butenyl ITC], the “activity against spore germination” value in [4] is “equal”. The activity against fungi result in the data set with fungi is given as “good activity”.

The values above are taken from US8784856B2, “Meadowfoam-based bioherbicide products” (The State of Oregon Acting by and Through the State Boad of …, priority 2007, dated 2014).
